Reference: ChEMBL document CHEMBL1817586, “N-(1,3-Diaryl-3-oxopropyl)amides as a new template for xanthine oxidase inhibitors” (Bioorg Med Chem, 2011)

Experiments:
[1] = biological target: Xanthine dehydrogenase/oxidase (Bos taurus, UniProt P80457); test: Inhibition of bovine milk xanthine oxidase assessed as decrease of uric acid formation preincubated for 5 mins by UV-visible spectrophotometric analysis
Mus musculus [2] = test: Antihyperuricemic activity in Swiss mouse assessed as decrease of potassium oxonate-induced uric acid level in serum at 10 mg/kg, ip after 3 hrs by HPLC analysis (reference value: 7.80 +/- 0.34 uM); format: functional; conditions: route intraperitoneal
Mus musculus [3] = test: Antihyperuricemic activity in Swiss mouse assessed as decrease of potassium oxonate-induced uric acid level in serum at 50 mg/kg, ip after 3 hrs by HPLC analysis (reference value: 7.80 +/- 0.34 uM); format: functional; conditions: route intraperitoneal
Mus musculus [4] = test: Antihyperuricemic activity in Swiss mouse assessed as decrease of potassium oxonate-induced uric acid level in serum at 20 mg/kg, ip after 3 hrs by HPLC analysis (reference value: 7.80 +/- 0.34 uM); format: functional; conditions: route intraperitoneal

Chain of Xanthine dehydrogenase/oxidase (P80457 whole entry): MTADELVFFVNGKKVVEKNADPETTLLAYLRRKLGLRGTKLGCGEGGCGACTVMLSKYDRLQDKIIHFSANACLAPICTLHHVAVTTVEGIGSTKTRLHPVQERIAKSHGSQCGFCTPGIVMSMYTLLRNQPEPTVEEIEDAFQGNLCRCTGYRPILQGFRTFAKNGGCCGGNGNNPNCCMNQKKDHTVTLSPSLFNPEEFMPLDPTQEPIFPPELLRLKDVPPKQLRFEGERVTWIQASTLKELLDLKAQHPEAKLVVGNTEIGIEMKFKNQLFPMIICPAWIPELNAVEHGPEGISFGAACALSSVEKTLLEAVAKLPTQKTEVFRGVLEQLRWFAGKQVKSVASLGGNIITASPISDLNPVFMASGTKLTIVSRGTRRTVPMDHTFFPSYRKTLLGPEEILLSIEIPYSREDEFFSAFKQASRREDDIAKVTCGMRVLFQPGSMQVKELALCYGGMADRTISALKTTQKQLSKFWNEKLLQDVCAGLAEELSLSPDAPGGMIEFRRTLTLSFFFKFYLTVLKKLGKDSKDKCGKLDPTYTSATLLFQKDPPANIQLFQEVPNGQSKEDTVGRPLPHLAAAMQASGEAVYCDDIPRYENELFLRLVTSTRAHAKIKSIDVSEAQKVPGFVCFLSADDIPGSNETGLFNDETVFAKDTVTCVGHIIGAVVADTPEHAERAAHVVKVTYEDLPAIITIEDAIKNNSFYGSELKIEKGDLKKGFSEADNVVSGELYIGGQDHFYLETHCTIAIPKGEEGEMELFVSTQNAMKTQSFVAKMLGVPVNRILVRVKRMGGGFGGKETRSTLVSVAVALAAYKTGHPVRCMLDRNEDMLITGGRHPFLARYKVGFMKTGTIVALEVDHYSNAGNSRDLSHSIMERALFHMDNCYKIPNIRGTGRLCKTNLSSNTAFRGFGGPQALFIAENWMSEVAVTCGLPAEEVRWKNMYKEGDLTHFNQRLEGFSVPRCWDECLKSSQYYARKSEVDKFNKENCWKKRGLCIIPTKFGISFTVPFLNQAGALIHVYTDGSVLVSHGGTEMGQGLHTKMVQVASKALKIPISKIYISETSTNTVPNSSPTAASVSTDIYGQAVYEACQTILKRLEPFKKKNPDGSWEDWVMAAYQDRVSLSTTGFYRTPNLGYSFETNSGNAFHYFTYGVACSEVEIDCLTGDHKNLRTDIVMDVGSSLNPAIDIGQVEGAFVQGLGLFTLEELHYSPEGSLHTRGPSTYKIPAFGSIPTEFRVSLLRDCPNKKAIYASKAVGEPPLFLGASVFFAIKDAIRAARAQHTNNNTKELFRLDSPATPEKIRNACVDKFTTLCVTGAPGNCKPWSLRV

| SMILES | IC50 [1] [µM] | other results |
| --- | --- | --- |
| CC(=O)NC(CC(=O)c1ccccc1)c1ccccc1 (centres undefined) | 38.3 | – |
| CC(=O)NC(CC(=O)c1ccc([N+](=O)[O-])cc1)c1ccccc1 (centres undefined) | 48 | – |
| CC(=O)Nc1cccc(C(=O)CC(NC(C)=O)c2cccc([N+](=O)[O-])c2)c1 (centres undefined) | 32 | – |
| CC(=O)NC(CC(=O)c1cccc2ccccc12)c1cccc([N+](=O)[O-])c1 (centres undefined) | 44 | – |
| CC(=O)NC(CC(=O)c1cccs1)c1ccccc1 (centres undefined) | 27 | – |
| CC(=O)Nc1cccc(C(=O)CC(NC(C)=O)c2ccc(Cl)cc2)c1 (centres undefined) | 41.8 | – |
| O=C(CC(NC(=O)c1ccccc1)c1ccccc1)c1ccccc1 (centres undefined) | 58.1 | – |
| CC(=O)Nc1cccc(C(=O)CC(/C=C/c2ccccc2)NC(C)=O)c1 (centres undefined) | 69.2 | – |
| CC(=O)NC(CC(=O)c1ccccc1)c1cccc(Br)c1 (centres undefined) | 28.1 | – |
| CC(=O)NC(CC(=O)c1cc(C)sc1C)c1ccc(Cl)cc1 (centres undefined) | 21.7 | – |
| O=C(CC(NC(=O)c1ccccc1)c1cccc([N+](=O)[O-])c1)c1ccccc1 (centres undefined) | 43.6 | – |
| Oc1ncnc2[nH]ncc12 [ALLOPURINOL] | – | Activity (Mus musculus [2]): 3.19 µM; Activity (Mus musculus [3]): 2.17 µM; Activity (Mus musculus [4]): 2.93 µM |
| CC(=O)NC(CC(=O)c1ccc(Cl)cc1)c1ccccc1 (centres undefined) | 42 | – |
| COc1ccc(C(CC(=O)c2ccc([N+](=O)[O-])cc2)NC(C)=O)cc1 (centres undefined) | 52.6 | – |
| CC(=O)NC(/C=C/c1ccccc1)CC(=O)c1ccccc1 (centres undefined) | 78.3 | – |
| COc1cc(C(CC(=O)c2ccccc2)NC(C)=O)cc(OC)c1OC (centres undefined) | 48.2 | – |
| CC(=O)NC(CC(=O)c1ccc(Cl)cc1)c1ccc(C)cc1 (centres undefined) | 44.6 | – |
| COc1ccc(OC)c(C(CC(=O)c2cc(Cl)cs2)NC(C)=O)c1 (centres undefined) | 20 | – |
| CC(=O)NC(CC(=O)c1ccccc1)c1ccc2ccccc2c1 (centres undefined) | 53 | – |
| C[N+](=O)C(CC(=O)c1ccccc1)c1c2ccccc2cc2ccccc12 (centres undefined) | 91.6 | – |
| CC(=O)NC(CC(=O)c1ccc2ccccc2c1)c1cccc(Br)c1 (centres undefined) | 2.45 | Activity (Mus musculus [2]): 3.21 µM; Activity (Mus musculus [3]): 2.18 µM; Activity (Mus musculus [4]): 2.96 µM |
| CC(=O)NC(CC(=O)c1ccccc1)c1ccco1 (centres undefined) | 63 | – |

| SMILES | IC50 [1] [µM] | other results |
| --- | --- | --- |
| CC(=O)NC(CC(=O)c1cc(C)sc1C)c1cccc([N+](=O)[O-])c1 (centres undefined) | 19.8 | – |
| COc1ccc(C(CC(=O)c2ccccc2)NC(C)=O)cc1 (centres undefined) | 45 | – |
| CC(=O)NC(CC(=O)c1cc(Cl)cs1)c1ccc(Cl)cc1 (centres undefined) | 22 | – |
| COc1ccc(C(CC(=O)c2ccccc2)NC(C)=O)c(OC)c1OC (centres undefined) | 46.1 | – |
| CC(=O)NC(CC(=O)c1ccccc1)c1ccc(Cl)cc1 (centres undefined) | 27.1 | – |
| CC(=O)NC(CC(=O)c1ccc2ccccc2c1)c1ccccc1 (centres undefined) | 8.5 | Activity (Mus musculus [2]): 4.26 µM; Activity (Mus musculus [3]): 4.14 µM; Activity (Mus musculus [4]): 4.22 µM |
| CC(=O)NC(CC(=O)c1ccco1)c1ccccc1 (centres undefined) | 26 | – |
| CC(=O)NC(CC(=O)c1cccc2ccccc12)c1cccc(Br)c1 (centres undefined) | 42.2 | – |
| CC(=O)NC(CC(=O)c1ccccc1)c1cccs1 (centres undefined) | 65 | – |
| CC(=O)NC(CC(=O)c1ccc(Cl)cc1)c1ccc(Cl)cc1 (centres undefined) | 41 | – |
| CC(=O)NC(CC(=O)c1ccco1)c1cccc([N+](=O)[O-])c1 (centres undefined) | 15.2 | Activity (Mus musculus [2]): 7.13 µM; Activity (Mus musculus [3]): 6.98 µM; Activity (Mus musculus [4]): 7.01 µM |
| CC(=O)NC(CC(=O)c1ccc([N+](=O)[O-])cc1)c1ccc(Cl)cc1 (centres undefined) | 45.4 | – |
| COc1ccc(OC)c(C(CC(=O)c2cccc(NC(C)=O)c2)NC(C)=O)c1 (centres undefined) | 43.2 | – |
| COc1ccc(OC)c(C(CC(=O)c2ccccc2)NC(C)=O)c1 (centres undefined) | 44 | – |
| CC(=O)NC(CC(=O)c1ccccc1)c1ccc(C#N)cc1 (centres undefined) | 29 | – |
| CC(=O)NC(CC(=O)c1ccccc1)c1cccc2ccccc12 (centres undefined) | 59 | – |
| CC(=O)NC(CC(=O)c1ccccc1)c1cccc([N+](=O)[O-])c1 (centres undefined) | 26.2 | – |
| COc1ccc(C(CC(=O)c2ccccc2)NC(C)=O)cc1OC (centres undefined) | 44.3 | – |
| CC(=O)NC(CC(=O)c1ccccc1)c1ccc([N+](=O)[O-])cc1 (centres undefined) | 28.5 | – |
| CC(=O)NC(CC(=O)c1cccc2ccccc12)c1ccccc1 (centres undefined) | 40 | – |
| CC(=O)NC(CC(=O)c1ccccc1)c1ccccc1[N+](=O)[O-] (centres undefined) | 32.3 | – |
